Measured values as given in PubChem BioAssay (NCI).
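1) Cells in 96-well plates. 2) Compound, 48 h, 5 concentrations. 3) Linear interpolation between surrounding doses. 4) Unreached endpoint = highest concentration. The concentration for 50% growth inhibition is given as GI50. At the TGI there is no net growth.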

How the values were obtained:
Test in all cases: NCI anticancer screen, dose series, 48 h
HOP-62 NSCLC = tested on: HOP-62 NSCLC
DU-145 prostate = tested on: DU-145 prostate
HCT-15 colon = tested on: HCT-15 colon
NCI-H460 lung = tested on: NCI-H460 lung
SF-295 CNS = tested on: SF-295 CNS
MDA-MB-435 = tested on: MDA-MB-435
OVCAR-4 ovarian = tested on: OVCAR-4 ovarian
CAKI-1 renal = tested on: CAKI-1 renal
IGROV1 ovarian = tested on: IGROV1 ovarian
CCRF-CEM leukemia = tested on: CCRF-CEM leukemia
HL-60(TB) leukemia = tested on: HL-60(TB) leukemia
COLO 205 colon = tested on: COLO 205 colon
SN12C renal = tested on: SN12C renal
NCI/ADR-RES ovarian = tested on: NCI/ADR-RES ovarian
NCI-H522 lung = tested on: NCI-H522 lung
A549 NSCLC = tested on: A549 NSCLC
PC-3 prostate = tested on: PC-3 prostate
SNB-75 CNS = tested on: SNB-75 CNS
ACHN renal = tested on: ACHN renal
TK-10 renal = tested on: TK-10 renal
MALME-3M melanoma = tested on: MALME-3M melanoma
T-47D breast = tested on: T-47D breast
SK-MEL-2 melanoma = tested on: SK-MEL-2 melanoma
SW-620 colon = tested on: SW-620 colon
HS 578T breast = tested on: HS 578T breast
HCC-2998 colon = tested on: HCC-2998 colon

Cc1nc(N)sc1-c1ccnc(Nc2ccc(N3CCOCC3)cc2)n1
GI50 (HOP-62 NSCLC): 1.87 µM
TGI (HOP-62 NSCLC): 60.3 µM
GI50 (DU-145 prostate): 2.99 µM
TGI (DU-145 prostate): > 100 µM
GI50 (HCT-15 colon): 0.991 µM
TGI (HCT-15 colon): > 100 µM
GI50 (NCI-H460 lung): 0.495 µM
TGI (NCI-H460 lung): > 43.9 µM
GI50 (SF-295 CNS): 1.2 µM
TGI (SF-295 CNS): 74.4 µM
GI50 (MDA-MB-435): 1.86 µM
TGI (MDA-MB-435): 36.7 µM
GI50 (OVCAR-4 ovarian): > 21.7 µM
TGI (OVCAR-4 ovarian): > 100 µM
GI50 (CAKI-1 renal): 0.517 µM
TGI (CAKI-1 renal): 3.05 µM
GI50 (IGROV1 ovarian): 0.846 µM
TGI (IGROV1 ovarian): > 33.7 µM
GI50 (CCRF-CEM leukemia): 1.16 µM
TGI (CCRF-CEM leukemia): > 100 µM
GI50 (HL-60(TB) leukemia): 1.99 µM
TGI (HL-60(TB) leukemia): 6.08 µM
GI50 (COLO 205 colon): 0.488 µM
TGI (COLO 205 colon): > 100 µM
GI50 (SN12C renal): 2.24 µM
TGI (SN12C renal): > 100 µM
GI50 (NCI/ADR-RES ovarian): 3.43 µM
TGI (NCI/ADR-RES ovarian): > 100 µM
GI50 (NCI-H522 lung): 1.41 µM
TGI (NCI-H522 lung): 87.5 µM
GI50 (A549 NSCLC): 1.13 µM
TGI (A549 NSCLC): > 100 µM
GI50 (PC-3 prostate): 1.81 µM
TGI (PC-3 prostate): > 100 µM
GI50 (SNB-75 CNS): 1.38 µM
TGI (SNB-75 CNS): 5.57 µM
GI50 (ACHN renal): 0.8 µM
TGI (ACHN renal): > 100 µM
GI50 (TK-10 renal): 1.06 µM
TGI (TK-10 renal): 8.14 µM
TGI (MALME-3M melanoma): > 65 µM
GI50 (T-47D breast): 2.92 µM
TGI (T-47D breast): > 100 µM
GI50 (SK-MEL-2 melanoma): 5.16 µM
TGI (SK-MEL-2 melanoma): 59.3 µM
GI50 (SW-620 colon): 1.41 µM
TGI (SW-620 colon): 24.9 µM
GI50 (HS 578T breast): 0.603 µM
TGI (HS 578T breast): > 100 µM
GI50 (HCC-2998 colon): 11.8 µM
TGI (HCC-2998 colon): > 100 µM
